Data reported in PubChem BioAssay AID1601.
pEC50: −log10 of the molar value. Inconclusive results are not listed. Where a SMILES comes first, the peptide text is derived from it.

These molecules were tested on mutant SOD1 cell death rescue, 1 uM (assay: suppressors of mutant SOD1 cell death (AID 1601)).

| SMILES | pEC50 |
| --- | --- |
| CC(C)NCC(O)c1ccc(O)c(O)c1 (centres undefined) | 6.00 |
| CC[C@H]1OC(=O)[C@H](C)[C@@H](O[C@H]2C[C@@](C)(OC)[C@@H](O)[C@H](C)O2)[C@H](C)[C@@H](O[C@@H]2O[C@H](C)C[C@H](N(C)C)[C@H]2O)[C@](C)(O)C[C@@H](C)CN(C)[C@H](C)[C@@H](O)[C@]1(C)O | 6.05 |
| CC(=O)NS(=O)(=O)c1ccc(N)cc1 | 5.68 |
| Cc1cc(C(C)(C)CC(C)(C)C)ccc1OCCOCC[N+](C)(C)Cc1ccccc1 | 7.00 |
| CC[C@@H](CO)NCCN[C@@H](CC)CO | 5.54 |
| CC(C)COCC(CN(Cc1ccccc1)c1ccccc1)N1CCCC1 (centres undefined) | 6.00 |
| CCCC(CCC)C(=O)O | 6.15 |
| CC(C)=CCC/C(C)=C/CO | 5.92 |
| NCCCCC(N)C(=O)NC(Cc1c[nH]c2ccccc12)C(=O)NC(CCCCN)C(=O)O (stereo not drawn) (H-Lys-Trp-Lys-OH; configuration not given here) | 5.07 |
